Experiments:
[1] = Ferric-reducing antioxidant power (FRAP) assay; settings: concentration for 50% of maximal ferric-reducing capacity; mean ± SD, triplicate
Procedure: The antioxidant capacity of the tested compounds was evaluated using the ferric-reducing antioxidant power (FRAP) assay, based on the reduction of ferric-tripyridyltriazine (Fe^3+-TPTZ) complex to its ferrous form (Fe^2+), resulting in a blue-colored product with a maximum absorbance at 593 nm. The assay was performed according to the modified method of Benzie and Strain [13], with modifications for microplate format and adjusted concentration ranges according to Rodrigues et al.. The FRAP working solution was freshly prepared by mixing 300 mM acetate buffer (pH 3.6), 10 mM TPTZ in 40 mM HCl, and 20 mM FeCl3·6H2O in a 10:1:1 volume ratio. The mixture was warmed to 37 °C before use to ensure optimal reaction conditions. For each reaction, 180 µL of the freshly prepared FRAP reagent was added to a well of a 96-well microplate, followed by 20 µL of the test compound at different concentrations (1–200 µg/mL) prepared in methanol. The mixture was incubated at 37 °C for 30 min. The increase in absorbance was measured at 593 nm using a microplate reader. […] All measurements were performed in triplicate and presented as the mean ± standard deviation.

[2] = ABTS radical-scavenging assay; settings: mean ± SD
Procedure: The ABTS assay was determined according to Elbouzidi et al., with some modifications. The stock solutions included 7.4 mM ABTS and 2.6 mM potassium persulfate. ABTS radical cation was prepared by mixing the two stock solutions in equal quantities and allowed to stand for 16 h at room temperature in the dark. And then, ABTS radical solution was adjusted with phosphate-buffered saline (pH 7.4) to an absorbance of 0.7–0.8 at 734 nm. For this assay, 190 μL of ABTS radical solution was mixed with 10 μL of each test sample solution in 96-well plates. After 60 min, the decrease of absorbance was measured at 734 nm using a microplate reader (Thermo Fisher Scientific Inc., Waltham, MA, USA). The standard curve was linear between 0.025 and 0.9 mM Trolox. […] Additional dilution was needed if the ABTS value measured was over the linear range of the standard curve.

[3] = target: T1, aldose reductase (Homo sapiens, UniProt P15121); assay: aldose reductase inhibition assay (Aldose Reductase Inhibitor Screening Kit); assay type: biochemical; settings: experimental; means ± SD of three independent replicates; read-out: ALR IC50 (aldose reductase inhibition) (converted)
T1 construct: purchased Biovision, Milpitas, CA, USA
Procedure: Aldose Reductase Inhibitor Screening Kit (Biovision, Milpitas, CA, USA) was used for the aldose reductase inhibition assay. Determination of the aldose reductase inhibitory effectiveness of the investigated compounds was performed kinetically using the Aldose Reductase Inhibitor Screening Kit (Biovision, Milpitas, CA, USA), according to the manufacturer's protocol. The decrease in the absorption of NADPH at 340 nm was measured in a mixture containing NADPH, the enzyme, and its substrate, […], in addition to test samples [21]. […] After incubation, 40 μL of enzyme substrate in assay buffer was added, and the absorbance was measured at 340 nm kinetically for 60-90 min at 37 °C. A background control free from the enzyme was run and subtracted from the readings. The IC50 was calculated and presented for the samples and the standard.

[4] = target: α-glucosidase enzyme from Saccharomyces cerevisiae; assay: α-glucosidase inhibition assay (PNP-G substrate); assay type: biochemical; settings: experimental; means ± SD of three independent replicates
Procedure: (§1) Aldose Reductase Inhibitor Screening Kit (Biovision, Milpitas, CA, USA) was used for the aldose reductase inhibition assay.
The activity of the compounds was assessed spectrophotometrically according to Li et al., with slight modifications. In a volume of 100 µL of 40 mM phosphate buffer (pH 6.9), different concentrations (1, 5, 10, 50, 100, 200 µg/mL) of the compounds were prepared. The tested samples were added to a reaction mixture in a 96-well microplate containing 20 µL of the phosphate buffer and 20 µL of 5 mM p-nitrophenyl α -D-glucopyranoside (PNP-G) in the buffer. […] The IC50 for test compounds as well as the standard was calculated and presented.

[5] = target: T2, α-amylase from porcine pancreas (Sus scrofa, UniProt P00690); assay: α-amylase inhibition assay (CNPG3 substrate); assay type: biochemical; settings: experimental; means ± SD of three independent replicates; read-out: AAI IC50 (α-amylase inhibition) (converted)
T2 construct: purchased Sigma Aldrich; host or cells: porcine pancreas
T2 sequence (P00690 16-511): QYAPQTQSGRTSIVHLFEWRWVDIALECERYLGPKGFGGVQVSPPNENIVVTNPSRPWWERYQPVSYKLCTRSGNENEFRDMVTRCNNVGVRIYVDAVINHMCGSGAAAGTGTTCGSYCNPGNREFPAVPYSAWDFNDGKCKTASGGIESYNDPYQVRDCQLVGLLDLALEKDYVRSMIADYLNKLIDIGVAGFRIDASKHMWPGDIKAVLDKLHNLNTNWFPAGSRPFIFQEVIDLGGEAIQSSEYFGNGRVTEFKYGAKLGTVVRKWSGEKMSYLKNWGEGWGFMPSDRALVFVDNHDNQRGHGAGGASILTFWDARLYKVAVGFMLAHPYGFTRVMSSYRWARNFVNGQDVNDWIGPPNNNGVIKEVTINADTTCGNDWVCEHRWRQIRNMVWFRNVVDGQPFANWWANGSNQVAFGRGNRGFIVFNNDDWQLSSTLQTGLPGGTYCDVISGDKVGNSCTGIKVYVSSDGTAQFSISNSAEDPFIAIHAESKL
Procedure: as §1
A pre-incubation mixture was prepared which contained 40 mM phosphate buffer (pH 6.9) together with different concentrations (1, 5, 10, 50, 100, 200 µg/mL) of the compounds. A 0.2 U of α-amylase enzyme was added to this mixture, and the plate was then incubated for 15 min at 37 °C. Then, 2-chloro-4-nitrophenyl maltotrioside (CNPG3) substrate was added, where the final concentration was 0.9 µmole/mL. […] A control which was devoid of the compounds was also run in parallel.

[6] = target: T3, porcine pancreatic lipase (Sus scrofa, UniProt P00591); assay: porcine pancreatic lipase inhibition assay (PNPB substrate); assay type: biochemical; settings: experimental; means ± SD of three independent replicates; read-out: LIP IC50 (lipase inhibition) (converted)
T3 construct: purchased Sigma Aldrich
T3 sequence (P00591 1-450): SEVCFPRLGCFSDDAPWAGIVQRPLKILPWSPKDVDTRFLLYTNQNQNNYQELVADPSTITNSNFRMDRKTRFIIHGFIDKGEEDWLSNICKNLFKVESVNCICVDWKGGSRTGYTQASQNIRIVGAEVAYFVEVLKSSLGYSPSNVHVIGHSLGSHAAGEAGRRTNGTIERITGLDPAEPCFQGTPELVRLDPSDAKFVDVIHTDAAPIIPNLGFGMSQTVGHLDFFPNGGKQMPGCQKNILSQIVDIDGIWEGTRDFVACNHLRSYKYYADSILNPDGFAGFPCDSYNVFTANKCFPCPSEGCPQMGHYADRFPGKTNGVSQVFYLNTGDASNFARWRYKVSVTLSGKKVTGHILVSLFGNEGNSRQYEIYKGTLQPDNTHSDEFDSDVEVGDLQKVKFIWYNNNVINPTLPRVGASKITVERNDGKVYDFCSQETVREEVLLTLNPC
Procedure: as §1
The porcine pancreatic lipase inhibition assay was utilized in this work, with modifications made based on a previous study. A stock solution of each compound at 1 mg/mL in 10% DMSO was used to prepare […] with concentrations 1, 5, 10, 50, 100, 200 µg/mL by means of dilution with methanol. Just before usage, the pancreatic lipase enzyme was freshly produced as a 1 mg/mL stock solution. […] In individual test tubes, 0.1 mL of porcine pancreatic lipase (1 mg/mL) was mixed with 0.2 mL of each compound concentration. To achieve a final volume of 1 mL, the Tri-HCl solution (pH 7.4) was added, and the mixtures were incubated at 25 °C for 15 min. Following the incubation, 0.1 mL of PNPB solution was introduced to each test tube. The mixtures were once again incubated for 30 min at 37 °C. […] All tests were conducted in triplicate, and the inhibition was calculated as per Equation (1).(1) %Lipase Inhibition=AB−AE/AB×100 where AB is the recorded absorbance of the blank solution, and AE is the recorded absorbance of the compound’s solution.

[7] = Cupric ion-reducing antioxidant capacity (CUPRAC) assay; settings: concentration for 50% of maximal cupric-reducing activity; mean ± SD, triplicate
Procedure: The total antioxidant capacity of the tested monoterpenes was also assessed using the Cupric ion-reducing antioxidant capacity (CUPRAC) assay, which measures the ability of antioxidants to reduce the Cu^2+-neocuproine complex to the stable-colored Cu^+-neocuproine chelate, absorbing at 450 nm. The assay was carried out following the protocol provided by the CUPRAC assay kit (Bioquochem, Asturias, Spain), with slight modifications to accommodate the tested compounds according to Salem et al.. The CUPRAC working solution consisted of a mixture of copper (II) chloride (10 mM), neocuproine (7.5 mM), and ammonium acetate buffer (1 M, pH 7.0) in a 1:1:1 volume ratio. For the assay, 40 µL of each test solution (prepared in methanol at concentrations ranging from 1 to 200 µg/mL) was added to 200 µL of the CUPRAC working solution in a well of a 96-well plate. The plate was incubated at room temperature for 30 min in the dark to allow full color development. The absorbance was then measured at 450 nm using a microplate spectrophotometer (Thermo Fisher Scientific Inc., Waltham, MA, USA). […] All tests were conducted in triplicate, and results are presented as mean ± SD.

Row | FRAP EC50 [1] | ABTS IC50 [2] | IC50 [3] | AGI IC50 (α-glucosidase inhibition) [4] | IC50 [5] | IC50 [6] | Compound | CUPRAC IC50 [7]
1 | 1459.83 ± 39.96 µg/mL | 755.82 ± 67.30 µg/mL | 1710 µM | 484.95 ± 17.65 µg/mL | 2340 µM | 3540 µM | CC12CCC(CC1=O)C2(C)C (centres unmarked) [Camphor] | 
2 | 389.01 ± 9.53 µg/mL | 476.49 ± 19.93 µg/mL | 899 µM | 340.42 ± 23.19 µg/mL | 1740 µM | 392 µM | CC1=CCC(C(C)(C)O)CC1 (stereo not drawn) [Terpineol, α-terpineol] | 

Further lines, the compound ahead of its results:

Row | Compound | FRAP EC50 [1] | ABTS IC50 [2] | IC50 [3] | AGI IC50 (α-glucosidase inhibition) [4] | IC50 [5] | IC50 [6] | CUPRAC IC50 [7]
3 | O=C1O[C@H]([C@@H](O)CO)C(O)=C1O [AA, ascorbic acid, reference compound] | 56.92 ± 2.99 µg/mL | 136.78 ± 5.97 µg/mL |  |  |  |  | 
4 | Cc1cc(C(C)(C)C)c(O)c(C(C)(C)C)c1 [BHT, butylated hydroxytoluene, reference compound] | 63.88 ± 4.83 µg/mL | 153.55 ± 9.65 µg/mL |  |  |  |  | 
5 | C=CCc1ccc(O)c(OC)c1 [Eugenol] | 78.55 ± 8.74 µg/mL | 19.42 ± 0.58 µg/mL | 241 µM | 84.93 ± 6.14 µg/mL | 339 µM | 388 µM | 39.53 ± 2.83 µg/mL

— paper PMC12293521 (Current Issues in Molecular Biology, 2025)
